Measured values as given in US20250197952A1, “TRANSGENIC SOYBEAN EVENT GM_CSM63717 AND COMPOSITIONS AND METHODS FOR DETECTION AND USES THEREOF” (Monsanto Technology LLC, priority 2023, published 2025).

Experiments:
[1] = tested on: Cas12a gRNA target sites on Glycine max A3335 chromosome 13; experiment: gRNA/LbCas12a target site editing in stably transformed soybean plants (AmpSeq); format: in vivo; conditions: plants with target site edits / plants examined x 100
Text: CRISPR Cas12a-based cleavage of DNA sequences requires the use of gRNAs that can target specific sequences (target sites) comprising a Cas12a-recognizable protospacer adjacent motif (PAM) sequence so as to facilitate Cas12a enzymatic activity and DNA cleavage. The 10 cM window was scanned for the presence of the LbCas12a-preferred PAM (TTTV, where “V” is A, C, or G) that were unique in the genome (i.e., that only occur once in the genome). This set was additionally filtered so as to identify gRNA target sites that were more than 2 kb from a coding region, more than 1 kb from a small RNA hotspot, and comprised 700 nucleotides (nt) of unique sequence on either side. A suite of genomic target sites was identified from this analysis and 12 were chosen for testing based on additional factors like GC content, and absence of potential off-targets. PAM sites are italicized and shown in bold. The corresponding 23 bp gRNA spacer (SP) sequences are also identified and represented by SEQ ID NOs:223-234.
Three Agrobacterium T-DNA vectors were designed to evaluate gRNA and LbCas12a nuclease mediated cleavage at the selected target sites. Each T-DNA vector contained 3 cassettes between the left and right borders on the T-DNA: an aadA selection marker cassette, an LbCas12a Cas12a cassette, and a multiplexed gRNA cassette. The aadA and LbCas12a cassettes were common across the three vectors. The aadA expression cassette contained the aadA gene (also known as Tn7 adenylyltransferase (AAD(3″)) from E. coli under the control of a constitutive promoter, and targeted the aadA protein to the chloroplast for selection of transgenic events resistant to spectinomycin and streptomycin. The LbCas12a cassette comprised a plant codon optimized LbCas12a (SEQ ID NO:236) flanked by the same nuclear localization signal sequence (NLS) at the 5′ and 3′ ends (SEQ ID NO:235) and a 3′UTR sequence (SEQ ID NO:237) derived from a Medicago truncatula gene. The gene cassette comprising NLS-Cas12aLbCas12a-NLS sequence was fused 3′ to an ATGGCG sequence and operably linked to a chimeric promoter sequence (SEQ ID NO:238) comprising an enhancer region from the Banana Streak Virus (Strain Acuminata Vietnam) and promoter with the 5′ UTR region from the Dahlia mosaic virus.
The guide RNA cassette in vector pG947 comprised a Glycine max Pol III promoter operably linked to a transcribable sequence comprising in order a DR sequence (SEQ ID NO:239), spacer SP10 (SEQ ID NO:232), DR (SEQ ID NO: 239), spacer SP11 (SEQ ID NO:233), DR (SEQ ID NO: 239), spacer SP2 (SEQ ID NO:224), DR (SEQ ID NO: 239), spacer SP12 (SEQ ID NO:234), DR and a poly (T)7 terminator. The guide RNA cassette in vector pG949 comprised a Glycine max Pol III promoter operably linked to a transcribable sequence comprising in order a DR sequence (SEQ ID NO:239), spacer SP9 (SEQ ID NO:231), DR (SEQ ID NO: 239), spacer SP7 (SEQ ID NO:229), DR (SEQ ID NO: 239), spacer SP1 (SEQ ID NO:223), DR (SEQ ID NO: 239), spacer SP5 (SEQ ID NO:227), DR (SEQ ID NO: 239) and a poly (T)7 terminator. The guide RNA cassette in vector pG950 comprised a Glycine max Pal III promoter operably linked to a transcribable sequence comprising in order a DR sequence (SEQ II) NO:239), spacer SP3 (SEQ ID NO:225), DR (SEQ ID NO: 239), spacer SP6 (SEQ ID NO:228), DR (SEQ ID NO: 239), spacer SP4 (SEQ ID NO:226), DR (SEQ ID NO: 239), spacer P8 (SEQ ID NO:230), DR and a poly (T)7 terminator.
The three plant transformation vectors were introduced into soybean seed-derived embryo explants through Agrobacterium-mediated transformation using methods known in the art. Transformed plants were selected on spectinomycin. Genomic DNA was extracted from leaf samples harvested from regenerated plantlets. Each targeted region was amplified by PCR. […]

[2] = tested on: wild-type control in the same transformation germplasm; experiment: Controlled environment PPO herbicide tolerance trial, wild-type control; format: in vivo, Glycine max; conditions: 1× rate, sprayed at V3 stage, greenhouse, rated 11 days after herbicide applications
Description: (§1) An efficacy trial was conducted in the controlled environment to evaluate tolerance of event Gm_CSM63717 to various PPO herbicides. The experiment included the lead event (Gm_CSM63717) and a wild-type control in the same transformation germplasm, and consisted of nine individual PPO herbicide treatments, all at 1× rates. These included butafenacil, flumioxazin, fomesafen, lactofen, pyroflufen, saflufenacil, Voraxor (trifludimoxazin and salflufenacil), sulfentrazone, cyclopropylmethyl (2-{2-chloro-4-fluoro-5-[3-methyl-2,6-dioxo-4-(trifluoromethyl)-3,6-dihydropyrimidin-1(2H)-yl]phenoxy}phenoxy)acetate, and an untreated control. The herbicide formulations contained 1% (v/v) Crop Oil Concentrate (COC, Prime Oil, Winfield Solutions, LLC, P. O. Box 64589, St. Paul, MN 55164-0589) for sulfentrazone, fomesafen, lactofen, or 1% (v/v) methylated seed oil (Destiny® HC, Winfield Solutions, LLC, P. O. Box 64589, St. Paul, MN 55164-0589) for flumioxazin, saflufenacil, Voraxor, pyroflufen, butafenacil, and cyclopropylmethyl (2-{2-chloro-4-fluoro-5-[3-methyl-2,6-dioxo-4-(trifluoromethyl)-3,6-dihydropyrimidin-1(2H)-yl]phenoxy}phenoxy)acetate. There were 10 replications per treatment. The plants were grown under standard greenhouse conditions, and were sprayed with each herbicide at V3 stage, and were visually rated for herbicide injury 11 days after herbicide applications.

[3] = tested on: soybean event Gm_CSM63717; experiment: Controlled environment PPO herbicide tolerance trial, event Gm_CSM63717; format: in vivo, Glycine max; conditions: 1× rate, sprayed at V3 stage, greenhouse, rated 11 days after herbicide applications
Description: as §1

Row | Molecule | Target Editing Rate (%) [1] | Injury (%) WT Control [2] | Injury (%) Gm_CSM63717 [3]
1 | GmTS6: LbCas12a gRNA for target site GmTS6 (SEQ ID NO:216), spacer SP6 (SEQ ID NO:228) (guide CATGCTGTCATCATCTGTTCACT; expressed or natural sequence) | 17.9% | – | –
2 | GmTS12: LbCas12a gRNA for target site GmTS12 (SEQ ID NO:222), spacer SP12 (SEQ ID NO:234) (guide GACATATATGCTATATCATTCTC; expressed or natural sequence) | 72% | – | –
3 | GmTS5: LbCas12a gRNA for target site GmTS5 (SEQ ID NO:215), spacer SP5 (SEQ ID NO:227) (guide CTAAATCGCATAGCTTGTGTGTT; expressed or natural sequence) | 14.3% | – | –
4 | GmTS4: LbCas12a gRNA for target site GmTS4 (SEQ ID NO:214), spacer SP4 (SEQ ID NO:226) (guide CCTTGATTTGGATTAACCCGCCA; expressed or natural sequence) | 8.3% | – | –
5 | GmTS9: LbCas12a gRNA for target site GmTS9 (SEQ ID NO:219), spacer SP9 (SEQ ID NO:231) (guide CGGAGTAGCAGAGAGGAGATTCG; expressed or natural sequence) | 36.9% | – | –
6 | GmTS3: LbCas12a gRNA for target site GmTS3 (SEQ ID NO:213), spacer SP3 (SEQ ID NO:225) (guide GCAAGATCCGCTGCCTGCTTGAG; expressed or natural sequence) | 8.3% | – | –
7 | GmTS11: LbCas12a gRNA for target site GmTS11 (SEQ ID NO:221), spacer SP11 (SEQ ID NO:233) (guide GCTCGCTATATATATGTGTCACA; expressed or natural sequence) | 48.8% | – | –
8 | GmTS1: LbCas12a gRNA for target site GmTS1 (SEQ ID NO:211), spacer SP1 (SEQ ID NO:223) (guide CAAACATCACATGGCCGGATAAG; expressed or natural sequence) | 2.4% | – | –
9 | Cn1c(C(F)(F)F)cc(=O)n(-c2cc(Oc3ccccc3OCC(=O)OCC3CC3)c(Cl)cc2F)c1=O [cyclopropylmethyl (2-{2-chloro-4-fluoro-5-[3-methyl-2,6-dioxo-4-(trifluoromethyl)-3,6-dihydropyrimidin-1(2H)-yl]phenoxy}phenoxy)acetate] | – | 89% | 0%
10 | GmTS2: LbCas12a gRNA for target site GmTS2 (SEQ ID NO:212), spacer SP2 (SEQ ID NO:224) (guide CTTCCTGAGGAAATTTGGTTTCA; expressed or natural sequence) | 7.3% | – | –
11 | GmTS7: LbCas12a gRNA for target site GmTS7 (SEQ ID NO:217), spacer SP7 (SEQ ID NO:229) (guide CCTATATCTGTTTCAGTGATTGC; expressed or natural sequence) | 23.8% | – | –
12 | GmTS10: LbCas12a gRNA for target site GmTS10 (SEQ ID NO:220), spacer SP10 (SEQ ID NO:232) (guide ATCAAAGCTAAAGCATAAGCATC; expressed or natural sequence) | 45.1% | – | –
